Assay results as given in US20210196724A1, “BIARYL COMPOSITIONS AND METHODS FOR MODULATING A KINASE CASCADE” (Athenex, Inc., priority 2016, published 2021).
“And” between values parts separate entries of the source, which are not always exact repeats. Equal entries are not always repeated.

Key:
[1] = system: GL261 cells; assay: MTT cell growth inhibition (GI50), GL261; format: cell-based, murine; details: 3 days
Description: (§1) The drug concentration required to block net cell growth by 50% relative to a control sample is measured as the GI50. The GI50s for several of the compounds of the application were assayed as described.
(§2) MTT assay: U87 and GL261 cells were seeded in 96-well plate (6×10^3 cells in 100 μl of DMEM+10% FBS media per well) and incubated overnight at 37° C. with 5% CO2. All test compounds were diluted (10 point 2-fold serial dilution) in a separate 96-well plate to yield 10× of final concentrations (0.5-256 nM). A volume of 11 μl of 10× dilutions was added to appropriate wells (n=3). To value (reflecting the starting number of cells upon drug treatment) was determined by following steps as described below. After 3 days incubation at 37° C. with 5% CO2, 10 μl of MTT solution (5 mg/ml in PBS) was added to each well and plates were incubated at 37° C. for 3 h to allow MTT to form formazan crystals by reacting with metabolically active cells. 100 μl of 20% SDS was added to each well and plates were incubated overnight at 37° C. with 5% CO2. Afterward, OD570 was measured using microplate reader. The cell growth percentage of control was calculated according to percentage of control=(T−T0)/(C−T0)×100% or OD value of the test well exposure to test drug—OD value at time zero/(OD of the control well without drug treatment−OD value at time zero)×100%. Growth inhibition curves and GI50 were determined using GraphPad Prism 5 software.

[2] = system: U87 cells; assay: MTT cell growth inhibition (GI50), U87; format: cell-based, human; details: 3 days
Description: as §1, §2

[3] = system: HT-29; assay: Cell growth inhibition (GI50), HT-29; format: cell-based; details: Homo sapiens, HT-29, HT-29
Description: as §1

[4] = Pharmacokinetic properties after IV and PO administration; format: in vivo; details: for AUCIV (dose-normalized) / t0.5 / C0 / clearance / Vd: IV Administration (5 mg/kg); for F (%) = 100 × AUCpo/AUCIV: PO 20 mg/kg vs IV 5 mg/kg; for AUCPO (dose-normalized) / Cmax: PO Administration (20 mg/kg); for C0 / clearance / Vd / Cmax: in vivo; for Vd: read-out: Vss
[5] = Brain permeability (brain:plasma ratio); format: in vivo; details: read-out: Brain:Plasma (B:P) Average; for Kp at 0.25 h: time point 0.25 h; for Kp at 0.5 h: time point 0.5 h; for Kp at 1 h: time point 1 h; for Kp at 2 h: time point 2 h; for Kp at 4 h: time point 4 h; for Kp at 6 h: time point 6 h; for Kp at 8 h: time point 8 h
Description: Brain permeability can be measured by various methods known in the art. For example, brain permeability can be measured by calculating the ratio between the concentration of a compound of the application in the brain and the concentration of the compound in the plasma (i.e., BP ratio). In one aspect, a compound of the application has a B:P ratio of at least 1.0, 1.1, 1.2, 1.3, 1.4, 1.5, 1.6, 1.7, 1.8, 1.9, or 2.0 at 1 hour after administration of the compound to a subject. In one aspect, a compound of the application has a B:P ratio of at least 1.5, 1.6, 1.7, 1.8, 1.9, or 2.0 at 1 hour after administration of the compound to a subject. In one aspect, a compound of the application has a B:P ratio of at least 1.4, 1.5, 1.6, 1.7, 1.8, 1.9, 2.0, 2.1, 2.2, or 2.3 at 2 hours after administration of the compound to a subject. In one aspect, a compound of the application has a B:P ratio of at least 1.9, 2.0, 2.1, 2.2, or 2.3 at 2 hours after administration of the compound to a subject. In one aspect, a compound of the application has a B:P ratio of at least 1.7, 1.8, 1.9, 2.0, 2.1, 2.2, 2.3, 2.4, or 2.5 at 4 hours after administration of the compound to a subject. In one aspect, a compound of the application has a B:P ratio of at least 2.2, 2.3, 2.4, or 2.5 at 4 hours after administration of the compound to a subject.

[6] = system: GL261 glioblastoma cells injected intra-cranially; assay: GL261 murine model of glioblastoma (intra-cranial), survival; format: in vivo, C57BL/6 mice
Description: The anti-tumor activity of Compound 121, as a single agent, was studied in the GL261 murine model of human glioblastoma. Murine GL261 glioblastoma cells were injected intra-cranially into syngeneic, immune-competent hosts (C57BL/6). In order for oral therapeutics to be effective, it is required that the therapeutic be able to cross the blood-brain barrier in order to achieve sufficient levels in the brain to exert an anti-tumor effect. Survival was the major endpoint for the study. The mice either succumbed to the tumor or were euthanized based on severity of tumor-dependent morbidity. Mice that achieved long-term survival (>80 days) were re-challenged with a sub-cutaneous injection of GL261 cells to assess the development of a durable immune response to GL261. Mice that underwent the re-challenge phase were not treated with Compound 121.
GL261 cells (1×10^5 cells) were implanted into the brain of a C57BL/6 host using stereotactice injection. Compound 121 was dosed orally once per day at 1 mg/kg (N=10) for 45 days beginning 3 days post-tumor cell implantation. Compound Y was dosed orally once per day at 5 mg/kg (N=10) for 45 days beginning 3 days post-tumor implantation. A vehicle was administered to a control group of mice (N=10) per the same schedule.
Mice were monitored for signs of tumor dependent morbidity, including head tilt, hunching, ataxia, and limb weakness. Mice were euthanized when cumulative signs of high tumor burden were evident.

Row | Compound | GI50 [1] | GI50 ([1]; Mus musculus, GL261, 72 h) [nM] | GI50 [2] | GI50 ([2]; Homo sapiens, U-87 MG, 72 h) [nM] | other results
1 | COc1cc(N2CCOC[C@@H]2C)ccc1-c1ccc(CC(=O)NCc2ccc(C#N)cc2)nc1 [Compound 130] | 107 nM | 111 | 135 nM | 104 | 
2 | COc1cc(N2CCOC[C@@H]2C)ccc1-c1ccc(CC(=O)NCc2cccc(F)c2)nc1 [Compound 128] |  | 303 |  | 377 | 
3 | C[C@H]1COCCN1c1ccc(-c2ccc(CC(=O)NCc3ccccc3)nc2)cc1 [Compound 108] |  | 6.8 |  | 6.6 | GI50 [3]: 3 nM
4 | COc1ccccc1CNC(=O)Cc1ccc(-c2ccc(N3CCOC[C@@H]3C)cc2C)cn1 [Compound 125] | 158 nM | 140 | 230 nM | 195 | 
5 | Cc1cc(CC(=O)NCc2cccc(F)c2)ncc1-c1ccc(N2CCOC[C@H]2C)cc1 [Compound 110] |  | > 1020 |  | > 1020 | 
6 | C[C@@H]1COCCN1c1ccc(-c2ccc(CC(=O)NCc3cccc(F)c3)nc2)cc1 [Compound 103] |  | 113 |  | 146 | 
7 | C[C@@H]1CN(c2ccc(-c3ccc(CC(=O)NCc4cccc(F)c4)nc3)cc2)CCO1 [Compound 101] |  | 76 |  | 96 | 
8 | C[C@H]1CN(c2ccc(-c3ccc(CC(=O)NCc4cccc(F)c4)nc3)cc2)CCO1 [Compound 100] | 127 nM | 129 | 151 nM | 203 | 
9 | Cc1cc(CC(=O)NCc2cccc(F)c2)ncc1-c1ccc(N2CCOC[C@@H]2C)cc1 [Compound 109] |  | > 1020 |  | > 1020 | 
10 | Cc1cc(N2CCOC[C@@H]2C)ccc1-c1ccc(CC(=O)NCc2cccc(C#N)c2)nc1 [Compound 124] |  | 1030 |  | 860 | 
11 | Cc1cc(N2CCOC[C@@H]2C)ccc1-c1ccc(CC(=O)NCc2ccccc2C#N)nc1 [Compound 123] |  | 456 |  | 473 | 
12 | C[C@H]1COCCN1c1ccc(-c2ccc(CC(=O)NCc3cccc(F)c3)nc2)cc1 [Compound 102] | 42 nM | 24 | 37 nM | 25 | 
13 | Cc1cc(N2CCOC[C@@H]2C)ccc1-c1ccc(CC(=O)NCc2ccncc2)nc1 [Compound 117] | 387 nM | 488 |  | > 729 | 
14 | Cc1cc(CC(=O)NCc2ccccc2)ncc1-c1ccc(N2CCOC[C@@H]2C)cc1 [Compound 111] | 170 nM | 195 | 224 nM | 239 | 
15 | Cc1cc(N2CCOC[C@@H]2C)ccc1-c1ccc(CC(=O)N[C@@H]2CCc3ccccc32)nc1 [Compound 107] | 28.3 nM | 19.4 | 23.4 nM | 22.1 | 
16 | Cc1cc(N2CCOC[C@@H]2C)ccc1-c1ccc(CC(=O)NCc2ccc(C#N)cc2)nc1 [Compound 122] | 18.9 nM | 13.8 | 17.3 nM | 24.7 | 
17 | Cc1nc(CC(=O)NCc2cccc(F)c2)ccc1-c1ccc(N2CCOC[C@@H]2C)cc1 [Compound 113] | 120 nM and 99 nM | 180 |  |  | GI50 [3]: 46 nM
18 | COc1cc(N2CCOC[C@@H]2C)ccc1-c1ccc(CC(=O)NCc2ccccc2)nc1 [Compound 126] | 38.6 nM | 47.9 | 46 nM | 41.9 | 
19 | Cc1cc(N2CCOC[C@@H]2C)ccc1-c1ccc(CC(=O)NCc2ccccc2F)nc1 [Compound 120] | 13.6 nM and 18.9 nM and 15.8 nM and 13.4 nM and 10.7 nM | 17 | 22.3 nM and 18.4 nM and 17.7 nM and 18.6 nM | 20.2 | AUCIV (dose-normalized) [4]: 188 kg·ng·h/mL/mg; t0.5 [4]: 0.663 h; F (%) = 100 × AUCpo/AUCIV [4]: 40.9%; AUCPO (dose-normalized) [4]: 76.8 kg·ng·h/mL/mg; C0 [4]: 1590 ng/mL; clearance [4]: 88.7 mL/min/kg; Vd [4]: 3.63 L/kg; Cmax [4]: 798 ng/mL; Kp at 0.25 h [5]: 1.24; Kp at 0.5 h [5]: 1.39; Kp at 1 h [5]: 1.72; Kp at 2 h [5]: 1.38; Kp at 4 h [5]: 1.04; Kp at 6 h [5]: 0.82; Kp at 8 h [5]: 1.12
20 | Cc1cc(CC(=O)NCc2ccccc2)ncc1-c1ccc(N2CCOC[C@H]2C)cc1 [Compound 112] | 240 nM | 210 | 401 nM | 352 | 
21 | Cc1cc(N2CCOC[C@@H]2C)ccc1-c1ccc(CC(=O)NCc2cccnc2)nc1 [Compound 118] |  | 262 |  | 621 | 
22 | Cc1nc(CC(=O)NCc2ccccc2)ccc1-c1ccc(N2CCOC[C@@H]2C)cc1 [Compound 115] |  |  | 15 nM and 15.6 nM | 30 | 
23 | Cc1nc(CC(=O)NCc2cccc(F)c2)ccc1-c1ccc(N2CCOC[C@H]2C)cc1 [Compound 114] | 500 nM | 340 |  |  | 
24 | COc1cc(N2CCOC[C@@H]2C)ccc1-c1ccc(CC(=O)NCc2ccc(F)cc2)nc1 [Compound 129] | 30.3 nM | 51.7 | 38.1 nM | 36 | 
25 | Cc1nc(CC(=O)NCc2ccccc2)ccc1-c1ccc(N2CCOC[C@H]2C)cc1 [Compound 116] | 90 nM and 74 nM | 110 | 115 nM and 98 nM | 120 | 
26 | O=C(Cc1ccc(-c2ccc(N3CCOCC3)cc2)cn1)NCc1cccc(F)c1 [Compound Y, reference compound] |  |  |  |  | AUCIV (dose-normalized) [4]: 553 kg·ng·h/mL/mg; t0.5 [4]: 0.364 h; F (%) = 100 × AUCpo/AUCIV [4]: 39.3%; AUCPO (dose-normalized) [4]: 217 kg·ng·h/mL/mg; C0 [4]: 4620 ng/mL; clearance [4]: 30.2 mL/min/kg; Vd [4]: 0.962 L/kg; Cmax [4]: 2590 ng/mL; Kp at 0.25 h [5]: 1.56; Kp at 0.5 h [5]: 1.46; Kp at 1 h [5]: 1.33; Kp at 2 h [5]: 0.712; Kp at 4 h [5]: 0.834; Kp at 6 h [5]: 0.633; Kp at 8 h [5]: 0.685; Activity in GL261 model ([6]; dosed once daily at >20 mg/kg): demonstrated activity; Effect on survival ([6]; orally once per day at 5 mg/kg for 45 days): only a marginal, insignificant effect on survival
27 | Cc1cc(N2CCOC[C@H]2C)ccc1-c1ccc(CC(=O)NCc2ccccc2)nc1 [Compound 105] | 6.9 nM | 5.7 | 12.2 nM | 10.8 | 
28 | Cc1cc(N2CCOC[C@@H]2C)ccc1-c1ccc(CC(=O)NCc2ccccn2)nc1 [Compound 119] | 216 nM and 139 nM | 164 | 233 nM and 224 nM | 129 | 
29 | COc1cc(N2CCOC[C@@H]2C)ccc1-c1ccc(CC(=O)NCc2ccccc2F)nc1 [Compound 127] |  | 207 |  | 269 | 
